Species: Rattus norvegicus
Assay: DrugMatrix - Regimen: Daily Repeat
Assay type: toxicity, organism-based, Sprague-Dawley
Set-up: regimen Daily Repeat, gender Male, age 6-8 weeks
Conditions: in vivo, po, 750 mg/kg, route oral GAVAGE, dose level High, vehicle .5 % CMC; for BASOPHIL / EOSINOPHIL / ERYTHROCYTE COUNT / HEMATOCRIT / HEMOGLOBIN / LEUKOCYTE COUNT / LYMPHOCYTE / MEAN CORPUSCULAR HEMOGLOBIN / MEAN CORPUSCULAR HEMOGLOBIN CONCENTRATION / MEAN CORPUSCULAR VOLUME / MONOCYTE / NEUTROPHIL / PLATELET COUNT: tissue Blood; for ALANINE AMINOTRANSFERASE / ALBUMIN / ALKALINE PHOSPHATASE / ASPARTATE AMINOTRANSFERASE / BLOOD UREA NITROGEN / CARBON DIOXIDE / CHLORIDE / CHOLESTEROL / CREATINE PHOSPHOKINASE / CREATININE / GLUCOSE / LACTATE DEHYDROGENASE / LIPASE / PHOSPHORUS / POTASSIUM / SODIUM / TOTAL BILIRUBIN / TOTAL PROTEIN / URIC ACID: tissue Plasma

SMILES: ClC(Cl)(Cl)C(Cl)(Cl)Cl [HEXACHLOROETHANE]
- BASOPHIL (96 h, time 4 day): 0.3%
- EOSINOPHIL (96 h, time 4 day): 0.6%
- ERYTHROCYTE COUNT (96 h, time 4 day): 7.16 x10E6/uL
- HEMATOCRIT (96 h, time 4 day): 45.77%
- HEMOGLOBIN (96 h, time 4 day): 14.9 G/DL
- LEUKOCYTE COUNT (96 h, time 4 day): 12.35 x10E3/uL
- LYMPHOCYTE (96 h, time 4 day): 79.87%
- MEAN CORPUSCULAR HEMOGLOBIN (96 h, time 4 day): 20.77 pg
- MEAN CORPUSCULAR HEMOGLOBIN CONCENTRATION (96 h, time 4 day): 32.5 G/DL
- MEAN CORPUSCULAR VOLUME (96 h, time 4 day): 63.9 fL
- MONOCYTE (96 h, time 4 day): 2.47%
- NEUTROPHIL (96 h, time 4 day): 16.1%
- PLATELET COUNT (96 h, time 4 day): 1434.33 x10E3/uL
- ALANINE AMINOTRANSFERASE (96 h, time 4 day): 28 u/L
- ALBUMIN (96 h, time 4 day): 3.87 G/DL
- ALKALINE PHOSPHATASE (96 h, time 4 day): 292 u/L
- ASPARTATE AMINOTRANSFERASE (96 h, time 4 day): 63.67 u/L
- BLOOD UREA NITROGEN (96 h, time 4 day): 17.67 mg/dL
- CARBON DIOXIDE (96 h, time 4 day): 21.67 mmol/L
- CHLORIDE (96 h, time 4 day): 108.33 MEQ/L
- CHOLESTEROL (96 h, time 4 day): 74.67 mg/dL
- CREATINE PHOSPHOKINASE (96 h, time 4 day): 242 u/L
- CREATININE (96 h, time 4 day): 0.43 mg/dL
- GLUCOSE (96 h, time 4 day): 177 mg/dL
- LACTATE DEHYDROGENASE (96 h, time 4 day): 82 u/L
- LIPASE (96 h, time 4 day): 19 u/L
- PHOSPHORUS (96 h, time 4 day): 11.57 mg/dL
- POTASSIUM (96 h, time 4 day): 5.67 MEQ/L
- SODIUM (96 h, time 4 day): 150 MEQ/L
- TOTAL BILIRUBIN (96 h, time 4 day): 0.23 mg/dL
- TOTAL PROTEIN (96 h, time 4 day): 6.5 G/DL
- URIC ACID (96 h, time 4 day): 1.17 mg/dL
- BASOPHIL ([…], time 6 day): 0.4%
- EOSINOPHIL ([…], time 6 day): 0.57%
- ERYTHROCYTE COUNT ([…], time 6 day): 7.65 x10E6/uL
- HEMATOCRIT ([…], time 6 day): 47.3%
- HEMOGLOBIN ([…], time 6 day): 15.03 G/DL
- LEUKOCYTE COUNT ([…], time 6 day): 11.09 x10E3/uL
- LYMPHOCYTE ([…], time 6 day): 86.53%
- MEAN CORPUSCULAR HEMOGLOBIN ([…], time 6 day): 19.67 pg
- MEAN CORPUSCULAR HEMOGLOBIN CONCENTRATION ([…], time 6 day): 31.77 G/DL
- MEAN CORPUSCULAR VOLUME ([…], time 6 day): 61.9 fL
- MONOCYTE ([…], time 6 day): 1.6%
- NEUTROPHIL ([…], time 6 day): 10.43%
- PLATELET COUNT ([…], time 6 day): 1317.33 x10E3/uL
- BASOPHIL ([…], time 14 day): 0.38%
- EOSINOPHIL ([…], time 14 day): 1.98%
- ERYTHROCYTE COUNT ([…], time 14 day): 8.11 x10E6/uL
- HEMATOCRIT ([…], time 14 day): 53.9%
- HEMOGLOBIN ([…], time 14 day): 15.78 G/DL
- LEUKOCYTE COUNT ([…], time 14 day): 13.93 x10E3/uL
- LYMPHOCYTE ([…], time 14 day): 77.98%
- MEAN CORPUSCULAR HEMOGLOBIN ([…], time 14 day): 19.5 pg
- MEAN CORPUSCULAR HEMOGLOBIN CONCENTRATION ([…], time 14 day): 29.3 G/DL
- MEAN CORPUSCULAR VOLUME ([…], time 14 day): 66.52 fL
- MONOCYTE ([…], time 14 day): 1.82%
- NEUTROPHIL ([…], time 14 day): 17.32%
- PLATELET COUNT ([…], time 14 day): 1210 x10E3/uL
- ALANINE AMINOTRANSFERASE ([…], time 6 day): 38.33 u/L
- ALBUMIN ([…], time 6 day): 3.9 G/DL
- ALKALINE PHOSPHATASE ([…], time 6 day): 248.33 u/L
- ASPARTATE AMINOTRANSFERASE ([…], time 6 day): 85.33 u/L
- BLOOD UREA NITROGEN ([…], time 6 day): 17 mg/dL
- CARBON DIOXIDE ([…], time 6 day): 24 mmol/L
- CHLORIDE ([…], time 6 day): 109.67 MEQ/L
- CHOLESTEROL ([…], time 6 day): 81 mg/dL
- CREATINE PHOSPHOKINASE ([…], time 6 day): 545 u/L
- CREATININE ([…], time 6 day): 0.33 mg/dL
- GLUCOSE ([…], time 6 day): 171.67 mg/dL
- LACTATE DEHYDROGENASE ([…], time 6 day): 134.33 u/L
- LIPASE ([…], time 6 day): 4.67 u/L
- PHOSPHORUS ([…], time 6 day): 12.5 mg/dL
- POTASSIUM ([…], time 6 day): 7.1 MEQ/L
- SODIUM ([…], time 6 day): 619.67 MEQ/L
- TOTAL BILIRUBIN ([…], time 6 day): 0.23 mg/dL
- TOTAL PROTEIN ([…], time 6 day): 6.6 G/DL
- URIC ACID ([…], time 6 day): 1.57 mg/dL
- ALANINE AMINOTRANSFERASE ([…], time 14 day): 49.8 u/L
- ALBUMIN ([…], time 14 day): 4.38 G/DL
- ALKALINE PHOSPHATASE ([…], time 14 day): 322.6 u/L
- ASPARTATE AMINOTRANSFERASE ([…], time 14 day): 75 u/L
- BLOOD UREA NITROGEN ([…], time 14 day): 15.6 mg/dL
- CARBON DIOXIDE ([…], time 14 day): 27.6 mmol/L
- CHLORIDE ([…], time 14 day): 104.8 MEQ/L
- CHOLESTEROL ([…], time 14 day): 84.4 mg/dL
- CREATINE PHOSPHOKINASE ([…], time 14 day): 289.2 u/L
- CREATININE ([…], time 14 day): 0.42 mg/dL
- GLUCOSE ([…], time 14 day): 153.6 mg/dL
- LACTATE DEHYDROGENASE ([…], time 14 day): 57.2 u/L
- LIPASE ([…], time 14 day): 7.2 u/L
- PHOSPHORUS ([…], time 14 day): 13.42 mg/dL
- POTASSIUM ([…], time 14 day): 6.7 MEQ/L
- SODIUM ([…], time 14 day): 151.4 MEQ/L
- TOTAL BILIRUBIN ([…], time 14 day): 0.34 mg/dL
- TOTAL PROTEIN ([…], time 14 day): 7.08 G/DL
- URIC ACID ([…], time 14 day): 1.5 mg/dL

Source: ChEMBL document CHEMBL3885881, “DrugMatrix”
